From ChEMBL document CHEMBL3046247, “Anti-inflammatory and antioxidant activities of some extracts and pure natural products isolated from Rhus tripartitum (Ucria)” (Med Chem Res, 2010)
≈ marks a conversion by molar mass, not a printed value.

Legend:
Type in all cases: functional
[1] = Antioxidant activity assessed as trolox equivalent of ABTS radical scavenging activity at 15 min
[2] = Antioxidant activity assessed as inhibition of ABTS radical formation at 0.03 mg/ml measured at 20 min relative to trolox
[3] = Antioxidant activity assessed as trolox equivalent of ABTS radical scavenging activity at 10 min
[4] = Antioxidant activity assessed as inhibition of ABTS radical formation at 0.5 mg/ml measured at 5 min relative to trolox
[5] = Antioxidant activity assessed as inhibition of ABTS radical formation at 1 mg/ml measured at 5 min relative to trolox
[6] = Antioxidant activity assessed as inhibition of ABTS radical formation at 1 mg/ml measured at 10 min relative to trolox
[7] = Antioxidant activity assessed as inhibition of ABTS radical formation at 0.06 mg/ml measured at 15 min relative to trolox
[8] = Antioxidant activity assessed as inhibition of ABTS radical formation at 1 mg/ml measured at 20 min relative to trolox
[9] = tested on: Radical scavenging activity; assay: Antioxidant activity assessed as inhibition of DPPH radical formation at 1 mg/ml measured at 30 min relative to trolox
[10] = Antioxidant activity assessed as inhibition of ABTS radical formation at 0.5 mg/ml measured at 15 min relative to trolox
[11] = Antioxidant activity assessed as inhibition of ABTS radical formation at 0.25 mg/ml measured at 20 min relative to trolox
[12] = Antioxidant activity assessed as inhibition of ABTS radical formation at 0.25 mg/ml measured at 10 min relative to trolox
[13] = Antioxidant activity assessed as inhibition of ABTS radical formation at 0.06 mg/ml measured at 5 min relative to trolox
[14] = Antioxidant activity assessed as inhibition of ABTS radical formation at 0.03 mg/ml measured at 5 min relative to trolox
[15] = Antioxidant activity assessed as inhibition of ABTS radical formation at 0.5 mg/ml measured at 10 min relative to trolox
[16] = Antioxidant activity assessed as inhibition of ABTS radical formation at 0.5 mg/ml measured at 20 min relative to trolox
[17] = Antioxidant activity assessed as inhibition of ABTS radical formation at 0.12 mg/ml measured at 5 min relative to trolox
[18] = Antioxidant activity assessed as inhibition of ABTS radical formation at 0.06 mg/ml measured at 20 min relative to trolox
[19] = Antioxidant activity assessed as inhibition of ABTS radical formation at 0.25 mg/ml measured at 15 min relative to trolox
[20] = Antioxidant activity assessed as inhibition of ABTS radical formation at 0.25 mg/ml measured at 5 min relative to trolox
[21] = Antioxidant activity assessed as trolox equivalent of ABTS radical scavenging activity at 5 min
[22] = Antioxidant activity assessed as inhibition of ABTS radical formation at 0.03 mg/ml measured at 15 min relative to trolox
[23] = Antioxidant activity assessed as inhibition of ABTS radical formation at 0.06 mg/ml measured at 10 min relative to trolox
[24] = Antioxidant activity assessed as inhibition of ABTS radical formation at 0.03 mg/ml measured at 10 min relative to trolox
[25] = Antioxidant activity assessed as inhibition of ABTS radical formation at 0.12 mg/ml measured at 15 min relative to trolox
[26] = Antioxidant activity assessed as inhibition of ABTS radical formation at 0.12 mg/ml measured at 20 min relative to trolox
[27] = Antioxidant activity assessed as trolox equivalent of ABTS radical scavenging activity at 20 min
[28] = tested on: Radical scavenging activity; assay: Antioxidant activity assessed as inhibition of DPPH radical formation measured at 30 min relative to trolox
[29] = Antioxidant activity assessed as inhibition of ABTS radical formation at 0.12 mg/ml measured at 10 min relative to trolox
[30] = Antioxidant activity assessed as inhibition of ABTS radical formation at 1 mg/ml measured at 15 min relative to trolox
Rattus norvegicus [31] = assay: Anti-inflammatory activity in fasted Rattus norvegicus Wistar (rat) assessed as inhibition of carrageenan-induced paw edema at 1 mg/kg, ip administered 1 hr prior to carrageenan challenge measured at 1 hr relative to control; details: route intraperitoneal
Rattus norvegicus [32] = assay: Anti-inflammatory activity in fasted Rattus norvegicus Wistar (rat) assessed as inhibition of carrageenan-induced paw edema at 1 mg/kg, ip administered 1 hr prior to carrageenan challenge measured at 3 hr relative to control; details: route intraperitoneal
Rattus norvegicus [33] = assay: Anti-inflammatory activity in fasted Rattus norvegicus Wistar (rat) assessed as inhibition of carrageenan-induced paw edema at 1 mg/kg, ip administered 1 hr prior to carrageenan challenge measured at 5 hr relative to control; details: route intraperitoneal
Rattus norvegicus [34] = assay: Anti-inflammatory activity in fasted Rattus norvegicus Wistar (rat) assessed as inhibition of carrageenan-induced paw edema at 0.1 mg/kg, ip administered 1 hr prior to carrageenan challenge measured at 5 hr relative to control; details: route intraperitoneal
Rattus norvegicus [35] = assay: Anti-inflammatory activity in fasted Rattus norvegicus Wistar (rat) assessed as inhibition of carrageenan-induced paw edema at 0.5 mg/kg, ip administered 1 hr prior to carrageenan challenge measured at 3 hr relative to control; details: route intraperitoneal
Rattus norvegicus [36] = assay: Anti-inflammatory activity in fasted Rattus norvegicus Wistar (rat) assessed as inhibition of carrageenan-induced paw edema at 0.5 mg/kg, ip administered 1 hr prior to carrageenan challenge measured at 1 hr relative to control; details: route intraperitoneal
Rattus norvegicus [37] = assay: Anti-inflammatory activity in fasted Rattus norvegicus Wistar (rat) assessed as inhibition of carrageenan-induced paw edema at 0.1 mg/kg, ip administered 1 hr prior to carrageenan challenge measured at 3 hr relative to control; details: route intraperitoneal
Rattus norvegicus [38] = assay: Anti-inflammatory activity in fasted Rattus norvegicus Wistar (rat) assessed as inhibition of carrageenan-induced paw edema at 0.5 mg/kg, ip administered 1 hr prior to carrageenan challenge measured at 5 hr relative to control; details: route intraperitoneal
Rattus norvegicus [39] = assay: Anti-inflammatory activity in fasted Rattus norvegicus Wistar (rat) assessed as inhibition of carrageenan-induced paw edema at 0.1 mg/kg, ip administered 1 hr prior to carrageenan challenge measured at 1 hr relative to control; details: route intraperitoneal
[40] = tested on: Radical scavenging activity; assay: Antioxidant activity assessed as inhibition of DPPH radical formation at 0.2 to 1 mg/ml measured at 30 min relative to trolox

Compound | Activity [1] [mMequiv/mg] | Imax [2] [%] | Activity [3] [mMequiv/mg] | Imax [4] [%] | Imax [5] [%] | Imax [6] [%] | Imax [7] [%] | Imax [8] [%] | Imax [10] [%] | Imax [11] [%] | Imax [12] [%] | Imax [13] [%] | Imax [14] [%] | Imax [15] [%] | Imax [16] [%] | Imax [17] [%] | Imax [18] [%] | Imax [19] [%] | Imax [20] [%] | Activity [21] [mMequiv/mg] | further results
COc1cc([C@@H]2c3c(cc(OC)c(O)c3OC)C[C@H](CO)[C@H]2CO[C@@H]2O[C@H](CO)[C@@H](O)[C@H](O)[C@H]2O)cc(OC)c1O | 1.45 | 23.3 | 1.33 | 48.5 | 49.4 | 55.3 | 24.6 | 65.5 | 60.9 | 47.8 | 37.8 | 18 | 13.2 | 55.5 | 66.6 | 23.8 | 29.9 | 41.6 | 31.9 | 1.19 | Imax [9]: 64.4%; Imax [22]: 18.9%; Imax [23]: 20.8%; Imax [24]: 15.3%; Imax [25]: 30.9%; Imax [26]: 35.7%; Activity [27]: 1.58 mMequiv/mg; IC50 [28]: 251.1 µg/mL (≈ 431 µM); Imax [29]: 27.2%; Imax [30]: 60.1%
C[C@@H]1C[C@H]2[C@@H]3CCC4=CC(=O)C=C[C@]4(C)[C@@]3(F)[C@@H](O)C[C@]2(C)[C@@]1(O)C(=O)CO [DEXAMETHASONE] | – | – | – | – | – | – | – | – | – | – | – | – | – | – | – | – | – | – | – | – | inhibition in vivo at 1 mg/kg (Rattus norvegicus [31]): 23%; inhibition in vivo at 1 mg/kg (Rattus norvegicus [32]): 30%; inhibition in vivo at 1 mg/kg (Rattus norvegicus [33]): 40%
O=C1C[C@H](c2ccc(O)cc2)Oc2cc(Oc3c(O)cc4c(c3O)C(=O)C[C@H](c3ccc(O)cc3)O4)cc(O)c21 [MASAZINOFLAVANONE] | 1.18 | 18.3 | 1.15 | 59.5 | 72 | 73 | 36.2 | 77.7 | 62.5 | 52.3 | 47.7 | 26.7 | 13.3 | 60.6 | 64.4 | 32.8 | 38.4 | 49.8 | 40.9 | 1.12 | inhibition in vivo at 0.1 mg/kg (Rattus norvegicus [34]): 10%; inhibition in vivo at 1 mg/kg (Rattus norvegicus [31]): 31%; inhibition in vivo at 0.5 mg/kg (Rattus norvegicus [35]): 25%; inhibition in vivo at 0.5 mg/kg (Rattus norvegicus [36]): 24%; inhibition in vivo at 0.1 mg/kg (Rattus norvegicus [37]): 8%; inhibition in vivo at 1 mg/kg (Rattus norvegicus [32]): 31%; Imax [22]: 16.3%; Imax [23]: 30.4%; inhibition in vivo at 0.5 mg/kg (Rattus norvegicus [38]): 14%; Imax [24]: 15.1%; Imax [25]: 43.2%; Imax [26]: 45.7%; Activity [27]: 1.2 mMequiv/mg; inhibition in vivo at 1 mg/kg (Rattus norvegicus [33]): 27%; Imax [29]: 35.9%; inhibition in vivo at 0.1 mg/kg (Rattus norvegicus [39]): 7%; Imax [30]: 75.5%
O=c1c(O)c(-c2cc(O)c(O)c(O)c2)oc2cc(O)cc(O)c12 [MYRICETIN] | 2.38 | 16.6 | 2.4 | 98.5 | 99.7 | 99.8 | 31.6 | 99.8 | 98.6 | 88.6 | 83.2 | 27.8 | 13.3 | 98.7 | 98.6 | 45.4 | 32.8 | 86.1 | 78.8 | 2.4 | Imax [40]: 75.1%; Imax [22]: 16%; Imax [23]: 29.8%; Imax [24]: 14.5%; Imax [25]: 51.1%; Imax [26]: 53.2%; Activity [27]: 2.4 mMequiv/mg; IC50 [28]: 22 µg/mL (≈ 69.1 µM); Imax [29]: 48.3%; Imax [30]: 99.8%
